Test results taken from the supplement of paper PMC10307832.

Columns and labels:
Assay in all cases: relative viability (nuclei count vs DMSO), 5 days (fraction); higher = more cells survive
[1] = compound: Cc1ccc(C(=O)Nc2cccc(C(F)(F)F)c2)cc1Nc1cncc(C(N)=O)c1 [ALW-II-49-7] + CS(=O)(=O)N1CCN(Cc2cc3nc(-c4cccc5[nH]ncc45)nc(N4CCOCC4)c3s2)CC1 [Pictilisib] (partner 1 µM)
Summary of the method: (§1)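 Lung cancer cell lines were pin-tool dosed in 1536-well plates on the day after seeding, with either a lone drug or a fixed anchor-drug dose plus five library-drug doses (not always all listed) in √10 steps. Nuclei were counted on 4× images after 5 days. Relative viability is the ratio of treated-well to vehicle-well nuclei counts, with each value a median of duplicate plates.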

[2] = compound: C1CC1C(=O)NC2=NNC3=C2C=CC(=C3)C4=CC(=CC=C4)C(=O)NC5CC5 [XMD13-2] + C[C@@H](Oc1cc(-c2cnn(C3CCNCC3)c2)cnc1N)c1c(Cl)ccc(F)c1Cl [Crizotinib] (partner 1 µM)
Summary of the method: as §1

[3] = compound: Cc1nc(Nc2ncc(C(=O)Nc3c(C)cccc3Cl)s2)cc(N2CCN(CCO)CC2)n1 [Dasatinib] + C[C@]1(O)C[C@@H](c2nc(-c3ccc4ccc(-c5ccccc5)nc4c3)c3c(N)nccn32)C1 [Linsitinib] (partner 1 µM)
Summary of the method: as §1

[4] = compound: Cc1ccc(C(=O)Nc2cccc(C(F)(F)F)c2)cc1Nc1cncc(C(N)=O)c1 [ALW-II-49-7] + NC(=O)Nc1cc(-c2cccc(F)c2)sc1C(=O)N[C@H]1CCCNC1 [AZD7762] (partner 0.2 µM)
Summary of the method: as §1

Cell Line: HOP-62
- relative viability ([1]; first compound 0.08 µM): 0.68
- relative viability ([1]; first compound 0.253 µM): 0.97
- relative viability ([1]; first compound 0.8 µM): 0.857
- relative viability ([1]; first compound 2.53 µM): 0.621
- relative viability ([1]; first compound 8 µM): 0.491
- relative viability ([2]; first compound 0.05 µM): 0.871
- relative viability ([2]; first compound 0.1581 µM): 0.889
- relative viability ([2]; first compound 0.5 µM): 0.933
- relative viability ([2]; first compound 1.581 µM): 0.939
- relative viability ([2]; first compound 5 µM): 0.439
- relative viability ([3]; first compound 0.005 µM): 1.07
- relative viability ([3]; first compound 0.01581 µM): 1.07
- relative viability ([3]; first compound 0.05 µM): 0.85
- relative viability ([3]; first compound 0.1581 µM): 0.682
- relative viability ([3]; first compound 0.5 µM): 0.297
- relative viability ([4]; first compound 0.08 µM): 0.386
- relative viability ([4]; first compound 0.253 µM): 0.455
- relative viability ([4]; first compound 0.8 µM): 0.648
- relative viability ([4]; first compound 2.53 µM): 0.619
- relative viability ([4]; first compound 8 µM): 0.586

Cell Line: LC-2-ad
- relative viability ([1]; first compound 0.08 µM): 0.427
- relative viability ([1]; first compound 0.253 µM): 1.04
- relative viability ([1]; first compound 0.8 µM): 0.31
- relative viability ([1]; first compound 2.53 µM): 0.542
- relative viability ([1]; first compound 8 µM): 0.555
- relative viability ([2]; first compound 0.05 µM): 0.468
- relative viability ([2]; first compound 0.1581 µM): 0.449
- relative viability ([2]; first compound 0.5 µM): 0.467
- relative viability ([2]; first compound 1.581 µM): 0.443
- relative viability ([2]; first compound 5 µM): 0.48
- relative viability ([3]; first compound 0.005 µM): 0.685
- relative viability ([3]; first compound 0.01581 µM): 0.702
- relative viability ([3]; first compound 0.05 µM): 0.6
- relative viability ([3]; first compound 0.1581 µM): 0.26
- relative viability ([3]; first compound 0.5 µM): 0.176
- relative viability ([4]; first compound 0.08 µM): 0.844
- relative viability ([4]; first compound 0.253 µM): 0.824
- relative viability ([4]; first compound 0.8 µM): 0.756
- relative viability ([4]; first compound 2.53 µM): 0.805
- relative viability ([4]; first compound 8 µM): 0.93

Cell Line: LCLC-97TM1
- relative viability ([1]; first compound 0.08 µM): 0.213
- relative viability ([1]; first compound 0.253 µM): 0.119
- relative viability ([1]; first compound 0.8 µM): 0.269
- relative viability ([1]; first compound 2.53 µM): 0.159
- relative viability ([1]; first compound 8 µM): 0.195
- relative viability ([2]; first compound 0.05 µM): 0.432
- relative viability ([2]; first compound 0.1581 µM): 0.318
- relative viability ([2]; first compound 0.5 µM): 0.265
- relative viability ([2]; first compound 1.581 µM): 0.374
- relative viability ([2]; first compound 5 µM): 0.256
- relative viability ([3]; first compound 0.005 µM): 0.17
- relative viability ([3]; first compound 0.01581 µM): 0.203
- relative viability ([3]; first compound 0.05 µM): 0.2
- relative viability ([3]; first compound 0.1581 µM): 0.163
- relative viability ([3]; first compound 0.5 µM): 0.129
- relative viability ([4]; first compound 0.08 µM): 0.228
- relative viability ([4]; first compound 0.253 µM): 0.418
- relative viability ([4]; first compound 0.8 µM): 0.328
- relative viability ([4]; first compound 2.53 µM): 0.156
- relative viability ([4]; first compound 8 µM): 0.179

Cell Line: LCLC-103H
- relative viability ([1]; first compound 0.08 µM): 0.544
- relative viability ([1]; first compound 0.253 µM): 0.859
- relative viability ([1]; first compound 0.8 µM): 0.692
- relative viability ([1]; first compound 2.53 µM): 0.67
- relative viability ([1]; first compound 8 µM): 0.546
- relative viability ([2]; first compound 0.05 µM): 1.05
- relative viability ([2]; first compound 0.1581 µM): 1.01
- relative viability ([2]; first compound 0.5 µM): 1.18
- relative viability ([2]; first compound 1.581 µM): 1
- relative viability ([2]; first compound 5 µM): 1.14
- relative viability ([3]; first compound 0.005 µM): 1.07
- relative viability ([3]; first compound 0.01581 µM): 0.961
- relative viability ([3]; first compound 0.05 µM): 0.88
- relative viability ([3]; first compound 0.1581 µM): 0.568
- relative viability ([3]; first compound 0.5 µM): 0.388
- relative viability ([4]; first compound 0.08 µM): 0.742
- relative viability ([4]; first compound 0.253 µM): 0.817
- relative viability ([4]; first compound 0.8 µM): 0.756
- relative viability ([4]; first compound 2.53 µM): 0.649
- relative viability ([4]; first compound 8 µM): 0.656

Cell Line: LK-2
- relative viability ([1]; first compound 0.08 µM): 0.559
- relative viability ([1]; first compound 0.253 µM): 0.648
- relative viability ([1]; first compound 0.8 µM): 0.508
- relative viability ([1]; first compound 2.53 µM): 0.361
- relative viability ([1]; first compound 8 µM): 0.513
- relative viability ([2]; first compound 0.05 µM): 0.214
- relative viability ([2]; first compound 0.1581 µM): 0.219
- relative viability ([2]; first compound 0.5 µM): 0.25
- relative viability ([2]; first compound 1.581 µM): 0.207
- relative viability ([2]; first compound 5 µM): 0.227
- relative viability ([3]; first compound 0.005 µM): 0.476
- relative viability ([3]; first compound 0.01581 µM): 0.281
- relative viability ([3]; first compound 0.05 µM): 0.268
- relative viability ([3]; first compound 0.1581 µM): 0.134
- relative viability ([3]; first compound 0.5 µM): 0.198
- relative viability ([4]; first compound 0.08 µM): 0.447
- relative viability ([4]; first compound 0.253 µM): 0.437
- relative viability ([4]; first compound 0.8 µM): 0.427
- relative viability ([4]; first compound 8 µM): 0.332

Cell Line: LOU-NH91
- relative viability ([1]; first compound 0.08 µM): 0.482
- relative viability ([1]; first compound 0.253 µM): 0.599
- relative viability ([1]; first compound 0.8 µM): 0.514
- relative viability ([1]; first compound 2.53 µM): 0.428
- relative viability ([1]; first compound 8 µM): 0.533
- relative viability ([2]; first compound 0.05 µM): 0.791
- relative viability ([2]; first compound 0.1581 µM): 0.659
- relative viability ([2]; first compound 0.5 µM): 0.769
- relative viability ([2]; first compound 1.581 µM): 0.727
- relative viability ([2]; first compound 5 µM): 0.782
- relative viability ([3]; first compound 0.005 µM): 0.961
- relative viability ([3]; first compound 0.01581 µM): 0.847
- relative viability ([3]; first compound 0.05 µM): 0.715
- relative viability ([3]; first compound 0.1581 µM): 0.549
- relative viability ([3]; first compound 0.5 µM): 0.412
- relative viability ([4]; first compound 0.08 µM): 0.567
- relative viability ([4]; first compound 0.253 µM): 0.774
- relative viability ([4]; first compound 0.8 µM): 0.782
- relative viability ([4]; first compound 8 µM): 0.596

Cell Line: LU99A
- relative viability ([1]; first compound 0.08 µM): 0.323
- relative viability ([1]; first compound 0.253 µM): 0.325
- relative viability ([1]; first compound 0.8 µM): 0.297
- relative viability ([1]; first compound 2.53 µM): 0.325
- relative viability ([1]; first compound 8 µM): 0.293
- relative viability ([2]; first compound 0.05 µM): 0.581
- relative viability ([2]; first compound 0.1581 µM): 0.489
- relative viability ([2]; first compound 0.5 µM): 0.558
- relative viability ([2]; first compound 1.581 µM): 0.429
- relative viability ([2]; first compound 5 µM): 0.393
- relative viability ([3]; first compound 0.005 µM): 0.494
- relative viability ([3]; first compound 0.01581 µM): 0.481
- relative viability ([3]; first compound 0.05 µM): 0.434
- relative viability ([3]; first compound 0.1581 µM): 0.199
- relative viability ([3]; first compound 0.5 µM): 0.173
- relative viability ([4]; first compound 0.253 µM): 0.376
- relative viability ([4]; first compound 0.8 µM): 0.294
- relative viability ([4]; first compound 2.53 µM): 0.312
- relative viability ([4]; first compound 8 µM): 0.626

Cell Line: LXF-289
- relative viability ([1]; first compound 0.08 µM): 0.711
- relative viability ([1]; first compound 0.253 µM): 0.778
- relative viability ([1]; first compound 0.8 µM): 0.8
- relative viability ([1]; first compound 2.53 µM): 0.773
- relative viability ([1]; first compound 8 µM): 0.746
- relative viability ([2]; first compound 0.05 µM): 0.863
- relative viability ([2]; first compound 0.1581 µM): 0.831
- relative viability ([2]; first compound 0.5 µM): 0.473
- relative viability ([2]; first compound 1.581 µM): 0.789
- relative viability ([2]; first compound 5 µM): 0.811
- relative viability ([3]; first compound 0.005 µM): 1
- relative viability ([3]; first compound 0.01581 µM): 0.974
- relative viability ([3]; first compound 0.05 µM): 0.831
- relative viability ([3]; first compound 0.1581 µM): 0.202
- relative viability ([3]; first compound 0.5 µM): 0.131
- relative viability ([4]; first compound 0.08 µM): 1.08
- relative viability ([4]; first compound 0.253 µM): 1.11
- relative viability ([4]; first compound 0.8 µM): 0.981
- relative viability ([4]; first compound 2.53 µM): 1.26
- relative viability ([4]; first compound 8 µM): 1.22
